SMILES strings stand for the structures.

Data on one molecule can be found in patent publication US20100173865A1, “Anti-Cancer Agent-Hyaluronic Acid Conjugate Compositions and Methods” (priority 2007, published 2010).

The subject of one series is NMP-1 xenografts. Briefly: NMP-1 orthotopic (intraperitoneal) ovarian carcinoma xenograft, survival and MR imaging. The format is in vivo, nude mice. Particulars: for T/C / Mean Day of Survival/Sacrifice: qd7 × 3 i.p. from Day 7; for Mean Day of Survival/Sacrifice: mean ± SEM. As to the method:
On Day 0, about 1×10^7 viable NMP-1 cells were injected into the peritoneal cavities of groups of 6 to 9-week-old female nude mice (Harlan Sprague Dawley, Indianapolis, Ind.). Five or more mice per experimental group were used as the basis for statistical analyses. Administration of drugs was initiated 1 week later (Day 7). […] NMP-1-implanted mice develop marked ascites as one of the earliest clinical signs of peritoneal tumor and before other aspects of tumor progression are apparent; ascitic fluid was repeatedly removed at intervals from mice, beginning around the fourth week. […] For any tumor-bearing mice that succumbed between daily observations and before the opportunity to sacrifice them, the day of death was considered to be the day before the date they were discovered as deceased. The day of humane sacrifice/death was recorded for each mouse, and these values were compared among control and treatment groups by paired or unpaired Student's t-tests for the survival analyses.
MRI studies were conducted in the MDACC Small Animal Imaging Facility (SAIF). […] Klostergaard, J., et al., Magnetic Resonance Imaging-Based Prospective Detection of Intraperitoneal Human Ovarian Carcinoma Xenografts Treatment Response, Int J Gynecol Cancer, 2006, 16 Suppl 1:111-7. Respiratory-gated, T2-weighted (TE: 45.0 ms, TR: 1215.6 ms, 0.5 mm thickness, 0.3 mm space between images) coronal images were used for initial evaluation of tumor distribution and growth in these models; images of the abdomens of these mice were acquired using a Bruker 4.7 T, 40 cm Biospec MR scanner (Bruker Biospin USA, Billerica, Mass.).
In the NMP-1 studies, mice were held for survival endpoints. In the SKOV-3ip studies, tumor measurements were performed using the Image J program (National Institutes of Health, USA). Regions of interest (ROI) were drawn on each image that contained tumor and then multiplied by slice thickness to obtain the tumor volume. […] To avoid overestimation of tumor size, one half of the volume from the most dorsal and ventral images containing tumor were used in the volume analysis. Assuming a tumor density of 1 g/ml, tumor volumes (mm^3) were converted to weight (g) for analysis.

In a further series the test system is HN5 xenografts. The series is described as follows: Orthotopic nude mouse model of oral tongue SCC, HN5. The format is in vivo, nude mice.
For series [1] the following is noted: plasma; IP administration; data from Banzato et al.; cited from earlier work.
Series [2] relates to OSC19-luciferase cell line. The series is described as follows: MTT cell proliferation assay. The format is cell-based. Particulars: Homo sapiens, 72 h, 3-day incubation, read-out: IC50 (growth inhibition, MTT). The procedure: (§1) To test the ability of paclitaxel and HA-paclitaxel to inhibit the proliferation of all human squamous cancer cell lines in vitro, a 3-(4,5-dimethylthiazol-2-yl)-2,5-diphenyltetrazolium bromide (MTT) assay was used. Two thousand cells per well were grown in DMEM medium supplemented with 10% FBS in 96-well tissue culture plates. After 24 h, the cells were treated with various concentrations of paclitaxel or HA-paclitaxel in DMEM medium supplemented with 2% FBS. To measure the number of metabolically active cells after a 3-day incubation period, an MTT assay as measured by a 96-well microtiter plate reader (MR-5000; Dynatech Laboratories Inc, Chantilly, Va.) at an optical density of 570 nm was used.
(§2) Quantified results of PCNA, CD31, and tumor volume were compared with Kruskal-Wallis and Wilcoxon rank-sum test, as appropriate. Survival was analyzed with the Kaplan-Meier method. Differences between the treatment and control groups were compared with the log-rank test. A two-tailed p<0.05 was considered significant.
Background: Tetrazolium dyes change colour on reduction, which living cells bring about.

The test system of the next series is HN5 cell line. Briefly: MTT cell proliferation assay. The format is cell-based. The conditions noted are these: Homo sapiens, 72 h, 3-day incubation, read-out: IC50 (growth inhibition, MTT). As to the method:
as §1, §2

In series [3] the test system is OSC19-luciferase xenografts. Briefly: Orthotopic nude mouse model of oral tongue SCC, OSC19-luciferase. The format is in vivo, nude mice.
Series [4] has as its system CD31/PECAM (microvessel density). Briefly: Microvessel density by CD31 staining of tumor sections. The format is in vivo, nude mice. Particulars: weekly i.v. injections. As to the method:
Frozen tissues were sectioned into 8- to 10-μm slices and used for detection of CD31/platelet/endothelial cell adhesion molecule 1 (CD31/PECAM). The slices were mounted on positively charged Plus slides (Fisher Scientific, Pittsburgh, Pa.) and air-dried for 30 minutes; fixed sequentially in cold acetone (5 minutes), 1:1 acetone/chloroform (v/v; 5 minutes), and acetone (5 minutes), and then washed with PBS. Immunohistochemical procedures were done as described previously with the primary antibody diluted 1:400. Peroxidase-conjugated secondary antibody was used for immunohistochemical analysis of CD31/PECAM. Bleaching of fluorescence was minimized by covering the slides with 90% glycerol and 10% PBS. The slides were incubated with stable 3,3′-diaminobenzidine for 10 to 20 minutes and then examined for the presence of CD31/PECAM. The sections were rinsed with distilled water, counterstained with Gill's hematoxylin for 1 minute, and mounted with Universal Mount (Research Genetics, Huntsville, Ala.).
To quantify microvessel density (MVD), areas containing higher numbers of tumor-associated blood vessels were identified at low microscopic power (100×). Vessels completely stained with anti-CD31 antibodies were counted in three random 0.04-mm^2 fields per slide at 200× magnification.

One may read the AUC as concentration integrated over time. As a reminder, the IC50 is the point on the concentration scale where inhibition reaches its midpoint. As for `CC(=O)O[C@H]1C(=O)[C@@]2(C)[C@H]([C@H](OC(=O)c3ccccc3)[C@]3(O)C[C@H](OC(=O)[C@H](O)[C@@H](NC(=O)c4ccccc4)c4ccccc4)C(C)=C1C3(C)C)[C@]1(OC(C)=O)CO[C@@H]1C[C@@H]2O` [Taxol, Paclitaxel], the T/C in the series with NMP-1 xenografts (10 mg/kg) was around 105; with NMP-1 xenografts (15 mg/kg), around 120. For the same molecule, the “Mean Day of Survival/Sacrifice” value with NMP-1 xenografts (10 mg/kg) was 32.6 ± 5.6 days; in the series with NMP-1 xenografts (15 mg/kg), 37.6 ± 9.3 days. Also, the “Activity by MR imaging and survival criteria” value in the series on NMP-1 xenografts (multiple-dose regimens, 10 or 15 mg/kg) was “essentially inactive”. Also, the Median survival time was 40 days with HN5 xenografts (3 weekly i.v. injections, control 26 days) and 60 days in series [3] (OSC19-luciferase, 3 weekly i.v. injections, control 30 days). Moreover, the “Reduction of tumor growth” value in the series with HN5 xenografts (one week after the last of 3 weekly i.v. treatments, HA-paclitaxel 120 mg/kg paclitaxel equivalent, paclitaxel 10 mg/kg) amounted to 63.8%; in series [3] (OSC19, one week after the last of 3 weekly i.v. treatments, HA-paclitaxel 120 mg/kg paclitaxel equivalent, paclitaxel 10 mg/kg) it was 64.2%. For the same molecule, in series [1], the AUC was 144 µg·h/mL. Further, the half-inhibitory concentration (IC50) was 2.16 nM in series [2] and 4.58 nM in the series with HN5 cell line. Further, the “Reduction of bioluminescence as opposed to control” value in series [3] (OSC19-luciferase, one week after the last treatment) is reported as 86.5%. In addition, in series [4], the “Effect on microvessel density (MVD)” value is “no effect on MVD”.
